ChEMBL document CHEMBL1146939, “Design, synthesis, and biological evaluations of novel oxindoles as HIV-1 non-nucleoside reverse transcriptase inhibitors. Part 2” (Bioorg Med Chem Lett, 2006)

Columns and labels:
[1] = test system: Human immunodeficiency virus 1; test: Antiviral activity against HIV1 in HEK293T cells; type: functional, organism-based; conditions: Human immunodeficiency virus 1, HEK-293T
[2] = test system: HEK293; test: Cytotoxicity against HEK293T cells; type: functional; conditions: Homo sapiens
[3] = test system: Human immunodeficiency virus 1; test: Antiviral activity against HIV1 K103N mutant; type: functional, organism-based
[4] = test system: Human immunodeficiency virus 1; test: Antiviral activity against HIV1 Y188L mutant; type: functional, organism-based
[5] = test system: Human immunodeficiency virus 1; test: Antiviral activity against HIV1 L100I mutant; type: functional, organism-based
[6] = test system: Human immunodeficiency virus 1; test: Antiviral activity against HIV1 Y181C mutant; type: functional, organism-based
[7] = test system: Human immunodeficiency virus 1; test: Antiviral activity against HIV1 I135T mutant; type: functional, organism-based
[8] = test system: Human immunodeficiency virus 1; test: Antiviral activity against HIV1 V106A mutant; type: functional, organism-based
[9] = test system: Human immunodeficiency virus 1; test: Antiviral activity against HIV1 V179E mutant; type: functional, organism-based
[10] = test system: Human immunodeficiency virus 1; test: Antiviral activity against HIV1 I135V mutant; type: functional, organism-based
[11] = test system: Human immunodeficiency virus 1; test: Antiviral activity against HIV1 E138K mutant; type: functional, organism-based
[12] = test system: Human immunodeficiency virus 1; test: Antiviral activity against HIV1 F227C mutant; type: functional, organism-based
[13] = test system: Human immunodeficiency virus 1; test: Antiviral activity against HIV1 F227L mutant; type: functional, organism-based

| Structure (SMILES) | EC50 [1] | CC50 [2] | further results |
| --- | --- | --- | --- |
| Cn1cccc1-c1cccc([C@H]2C[C@]23C(=O)Nc2ccc(Cl)cc23)n1 | 557 nM | > 10000 nM | – |
| O=C1Nc2ccc(Cl)cc2[C@@]12C[C@@H]2c1cc2ccccc2s1 | 4970 nM | > 10000 nM | – |
| O=C1Nc2ccc(Cl)cc2[C@@]12C[C@@H]2c1ccc(Br)cn1 | 23 nM | > 10000 nM | – |
| CC(=O)/C=C/c1cccc([C@H]2C[C@]23C(=O)Nc2ccc(Cl)cc23)n1 | 1810 nM | 6130 nM | – |
| Cc1ccsc1[C@H]1C[C@]12C(=O)Nc1ccc(Cl)cc12 | 844 nM | > 10000 nM | – |
| O=C1Nc2ccc(Cl)cc2[C@@]12C[C@@H]2c1ccc(F)cc1 | > 10000 nM | > 10000 nM | – |
| COc1c(C)cnc([C@H]2C[C@]23C(=O)Nc2ccc(Cl)cc23)c1C | 463 nM | > 10000 nM | – |
| CC1(C)[C@H](c2cccc(Br)n2)[C@@]12C(=O)Nc1ccc(Cl)cc12 | 28 nM | 5240 nM | – |
| O=C1Nc2ccc(Cl)cc2[C@@]12C[C@@H]2c1cccc(-c2ccccn2)n1 | 504 nM | > 10000 nM | – |
| Cn1ccnc1[C@H]1C[C@]12C(=O)Nc1ccc(Cl)cc12 | > 10000 nM | > 10000 nM | – |
| Cc1cnc([C@H]2C[C@]23C(=O)Nc2ccc(Cl)cc23)c(C)c1[N+](=O)[O-] | 180 nM | > 10000 nM | – |
| O=C1Nc2ccc(Cl)cc2[C@@]12C[C@@H]2c1cccnc1 | > 10000 nM | > 10000 nM | – |
| O=C1Nc2ccc(Cl)cc2[C@@]12C[C@@H]2c1ccc2ccccc2c1 | > 10000 nM | > 10000 nM | – |
| Cn1cccc1[C@H]1C[C@]12C(=O)Nc1ccc(Cl)cc12 | > 10000 nM | > 10000 nM | – |
| O=C1Nc2ccc(Cl)cc2[C@@]12C[C@@H]2c1cc2ccccc2o1 | 86 nM | > 10000 nM | – |
| Cc1cccc([C@H]2C[C@]23C(=O)Nc2ccc(Cl)cc23)n1 | 39 nM | > 10000 nM | – |
| O=C1Nc2ccc(Cl)cc2[C@@]12C[C@@H]2c1nccs1 | > 10000 nM | > 10000 nM | – |
| Cc1cc([C@H]2C[C@]23C(=O)Nc2ccc(Cl)cc23)oc1C | 27 nM | > 10000 nM | EC50 [3]: > 10000 nM; EC50 [4]: > 10000 nM; EC50 [5]: 260 nM; EC50 [6]: 3070 nM; EC50 [7]: 236 nM; EC50 [8]: 630 nM; EC50 [9]: 2460 nM; EC50 [10]: 59 nM; EC50 [11]: 52 nM; EC50 [12]: 957 nM; EC50 [13]: 63 nM |
| COC(=O)c1cc(OC)cc(OC)c1[C@H]1C[C@]12C(=O)Nc1ccc(Cl)cc12 | 167 nM | > 10000 nM | – |
| O=C1Nc2ccc(Cl)cc2[C@@]12C[C@@H]2c1ccc(Br)o1 | 245 nM | > 10000 nM | – |
| COc1ccc([C@H]2C[C@]23C(=O)Nc2ccc(Cl)cc23)cc1 | > 10000 nM | > 10000 nM | – |
| CCc1ccc([C@H]2C[C@]23C(=O)Nc2ccc(Cl)cc23)s1 | 160 nM | > 10000 nM | – |
| O=C1Nc2ccc(Cl)cc2[C@@]12C[C@@H]2c1cccc(-c2cccs2)n1 | 16 nM | > 10000 nM | EC50 [3]: 2240 nM; EC50 [4]: 1970 nM; EC50 [5]: 100 nM; EC50 [6]: 63 nM; EC50 [7]: 68 nM; EC50 [8]: 147 nM; EC50 [9]: 60 nM; EC50 [10]: 263 nM; EC50 [11]: 38 nM; EC50 [12]: 313 nM; EC50 [13]: 365 nM |
| Cn1nnnc1[C@H]1C[C@]12C(=O)Nc1ccc(Cl)cc12 | > 10000 nM | > 10000 nM | – |
| O=C1Nc2ccc(Cl)cc2[C@@](C#CC2CC2)(C(F)(F)F)O1 [EFAVIRENZ] | – | 10000 nM | EC50 [6]: 1.1 nM; EC50 [7]: 1 nM; EC50 [12]: 8 nM |
| Cc1ccnc2c1NC(=O)c1cccnc1N2C1CC1 [NEVIRAPINE] | – | > 10000 nM | EC50 [4]: > 10000 nM; EC50 [6]: > 10000 nM; EC50 [7]: 207 nM; EC50 [12]: 733 nM |
